# In patent publication US20090117563A1, “Identification of TRPML3 (MCOLN3) as a Salty Taste Receptor and Use in Assays for Identifying Taste (Salty) Modulators and/or Therapeutics that Modulate Sodium Transport, Absorption or Excretion and/or Aldosterone and/or Vasopressin Production or Release” (priority 2007, published 2009):
# Molecular target: T1, human TRPML3 (Homo sapiens, UniProt Q8TDD5)
# T1 construct: expressed in transfected cells
# T1 sequence (Q8TDD5 1-553): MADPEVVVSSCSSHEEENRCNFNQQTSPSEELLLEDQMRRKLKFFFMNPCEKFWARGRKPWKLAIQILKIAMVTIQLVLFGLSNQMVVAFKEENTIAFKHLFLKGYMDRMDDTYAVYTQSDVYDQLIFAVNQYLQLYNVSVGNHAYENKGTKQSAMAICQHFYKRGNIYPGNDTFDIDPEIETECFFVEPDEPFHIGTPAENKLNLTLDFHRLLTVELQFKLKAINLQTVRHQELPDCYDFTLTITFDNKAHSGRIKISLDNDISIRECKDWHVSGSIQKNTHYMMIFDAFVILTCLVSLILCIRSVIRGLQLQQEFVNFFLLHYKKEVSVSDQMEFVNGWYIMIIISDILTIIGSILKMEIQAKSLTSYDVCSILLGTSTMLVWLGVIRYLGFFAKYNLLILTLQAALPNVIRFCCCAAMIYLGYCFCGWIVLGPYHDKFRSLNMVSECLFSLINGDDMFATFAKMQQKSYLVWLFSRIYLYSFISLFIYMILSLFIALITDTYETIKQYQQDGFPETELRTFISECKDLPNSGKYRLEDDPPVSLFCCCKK
# Assay: Two-electrode voltage clamp in oocytes injected with human TRPML3 cRNA
# Assay type: cell-based
# Details: 300 uM gadolinium (GdCl3) solution; −100 to +60 mV
# Description: Twenty-four to forty-eight hours following microinjection of 10-25 ng human TRPML3 cRNA, TRPML3 function is measured in oocytes using the two-electrode voltage clamp technique on an OpusXpress 6000A parallel oocyte voltage clamp system (MDS Analytical Technologies). The two-electrode voltage clamp technique is an electrophysiology method that measures the macroscopic electrical current flowing across the entire oocyte membrane though protein channels (Stuhmer, Methods in Enzymology (1992) 207: 319-339). Oocytes are impaled with a voltage-sensing electrode and a current-sensing electrode; the voltage, or potential difference across the oocyte membrane, is clamped to a particular value using the voltage-sensing electrode and the current, or the flow of ions across the oocyte membrane, required to maintain that voltage is measured using the current-sensing electrode. […]
# If the compound functions as a TRPML3 enhancer, the current passing through TRPML3 channels in the oocyte membrane increases (becomes more negative). […] To quantitate the effect of a compound on TRPML3 function, the following formula is used: […]
# This value corresponds to the magnitude of the current change due to compound divided by the magnitude of the current change due to NMDG multiplied by −100%. […] All four oocytes expressed TRPML3, as evidenced by the inhibitory effect of NMDG on measured oocyte currents. […]
compound,measurement,value
"[Cl][Gd]([Cl])[Cl] [gadolinium, gadolinium chloride]",effect on TRPML3 current and slope of the I/V curve,blocks TRPML3 current and decreases the slope of the I/V curve
